Assay results taken from patent publication US20250368687A1, “SHORT SYNTHETIC PEPTIDES AND USES THEREOF IN THE TREATMENT OF ENTEROVIRUS INFECTION” (CITY UNIVERSITY OF HONG KONG, priority 2024, published 2025).

What was measured:
[1] = test system: Hsp27 phosphorylation on Ser 15, 78, 82; assay: Western blot of Hsp27 phosphorylation in EV-A71-infected RD cells; assay type: cell-based; conditions: for inhibition of Hsp27 Ser78 phosphorylation: peptide pre-treatment 2 hours
Method: RD cells were treated with SB203580 at indicated concentration for 2 hours, then infected with EV-A71 at the MOI of 10 for 6 hours. Cell lysates were collected for western blot assay. Hsp27 phosphorylation on Ser 15, 78, 82 were detected by specific antibodies. GAPDH were detected as internal control.
FIGS. 10A-10K. […] (FIG. 10A) RD cells were pre-treated with peptides S78 or for 2 hours and infected with EV-A71 at the MOI of 10 for 6 hours. Cell lysates were collected for western blot assay. Hsp27 phosphorylation on Ser 15, 78, 82 were detected by specific antibodies. β-Actin were detected as internal control. (FIG. 10B) Densitometric analysis of FIG. 9A. (FIG. 10C) HEK 293T cells were pre-treated with peptides S78 or S78A at the concentration of 25 μM for 2 hours and then co-transfected with Hsp27-WT plasmid (800 ng), pIRES reporter plasmid (200 ng) and 2A^pro-expressing plasmid or 2AC110A-expressing plasmid (200 ng) for 24 h, then the luciferase activity was measured. (FIG. 10D-10E) RD cells were treated with peptides S78 or S78A and then infected with EV-A71. EV-A71 VP1 were detected. (FIG. 10F) RD cells were treated with peptides and then infected with EV-A71 at the MOI of 1 for 12 hours. The EV-A71-induced CPE was captured. (FIG. 10G-10H) Intracellular viral RNA was extracted and quantified by qPCR. (FIG. 10I) Densitometric analysis FIG. 9D-E. (FIG. 10J) RD cells were treated with peptides S78 or and then infected with EV-A71 at the MOI of 1 for 12 hours. Extracellular viral RNA was extracted and quantified by qPCR. (FIG. 10K) Viral titration was calculated by TCID50. The Statistical analyses were carried out using Student's t-test. *: p<0.05, **: p<0.01, ***: p<0.001. Data are expressed as mean ±SD.
(§1) After cell lysis in Nonidet-P40 (NP-40) buffer, the cell lysates were centrifuged, and the concentration was determined by Bradford assay (Bio-Rad). 20 μg of protein was used for 12% SDS-PAGE and transferred onto polyvinylidene fluoride membrane (PVDF) (GE, MA, USA). Following 5% bovine serum albumin (BSA) blocking for 1 hrs, the membrane was incubated with antibodies (1:1000) against Hsp27 (sc-13132), pHsp27-Ser15 (ab76313), pHsp27-Ser78 (ADI-SPA-523), pHsp27-Ser82 (ab155987), VP1 (GTX132339), β-Actin (sc-47778), hnRNP A1 (sc-32301), or GAPDH (sc-32233) overnight in 4° C. After secondary antibodies (HRP-conjugated Affinipure Goat Anti-Mouse IgG(H+L), SA00001-1, and HRP-conjugated Affinipure Goat Anti-Rabbit IgG(H+L), SA00001-2) incubation for 1 hrs, the protein was visualized with a chemiluminescence reagent (PerkinElmer, MA, USA) on Bio-Rad Chemidoc Imaging System. The protein bands were quantified by densitometry with ImageJ if necessary.
In this example, the effect of EV-A71 infection on Hsp27 phosphorylation was investigated. […] Then, the phosphorylation status of Hsp27 upon virus infection under the treatment with a p38 inhibitor was examined, as the phosphorylation of Hsp27 could be resulted from p38 signaling activation. To this purpose, the cells were first treated with p38 kinase inhibitor −SB203580 at different concentrations (0, 0.25, 0.5, 1, 2, 4, and 8 μM) and the phosphorylation level of Hsp27 upon EV-A71 infection was examined by western blot assay.

EV-A71 VP1 = assay: Western blot of EV-A71 VP1 level in RD cells; assay type: cell-based; conditions: for EV-A71 VP1 protein level (in words): indicated concentrations
Method: FIGS. 10A-10K. Peptide S78 inhibited EV-A71 replication and propagation. (FIG. 10A) RD cells were pre-treated with peptides S78 or for 2 hours and infected with EV-A71 at the MOI of 10 for 6 hours. Cell lysates were collected for western blot assay. Hsp27 phosphorylation on Ser 15, 78, 82 were detected by specific antibodies. β-Actin were detected as internal control. (FIG. 10B) Densitometric analysis of FIG. 9A. (FIG. 10C) HEK 293T cells were pre-treated with peptides S78 or S78A at the concentration of 25 μM for 2 hours and then co-transfected with Hsp27-WT plasmid (800 ng), pIRES reporter plasmid (200 ng) and 2A^pro-expressing plasmid or 2AC110A-expressing plasmid (200 ng) for 24 h, then the luciferase activity was measured. (FIG. 10D-10E) RD cells were treated with peptides S78 or S78A and then infected with EV-A71. EV-A71 VP1 were detected. (FIG. 10F) RD cells were treated with peptides and then infected with EV-A71 at the MOI of 1 for 12 hours. The EV-A71-induced CPE was captured. (FIG. 10G-10H) Intracellular viral RNA was extracted and quantified by qPCR. (FIG. 10I) Densitometric analysis FIG. 9D-E. (FIG. 10J) RD cells were treated with peptides S78 or and then infected with EV-A71 at the MOI of 1 for 12 hours. Extracellular viral RNA was extracted and quantified by qPCR. (FIG. 10K) Viral titration was calculated by TCID50. The Statistical analyses were carried out using Student's t-test. *: p<0.05, **: p<0.01, ***: p<0.001. Data are expressed as mean ±SD.
FIGS. 11A-11G Inhibition of EV-A71 Protein Translation and Viral Reproduction by peptide S82A. (FIG. 11A) HEK 293T cells were pre-treated with peptides NC, S78, S78A, S82A, or S78-3A at the concentration of 25 μM for 2 hours and then co-transfected with Hsp27-WT plasmid (800 ng), pIRES reporter plasmid (200 ng) and 2A^pro-expressing plasmid for 24 h, then the luciferase activity was measured. (FIG. 11B) RD cells were pre-treated with peptides NC at indicated concentrations for 2 hours and infected with EV-A71 at the MOI of 1 for 9 hours. Intracellular viral RNA was extracted and quantified by qPCR. (FIG. 11C-11E) RD cells were treated with peptides NC, S82A, or S78-3A at indicated concentrations for 2 hours and then infected with EV-A71 at the MOI of 1 for 9 hours. Cell lysates were collected for western blot assay. EV-A71 VP1 were detected. β-Actin was detected as an internal control. (FIG. 11F) Densitometric analysis of the EV-A71 VP1 level in FIG. S7C-E was quantified and normalized with β-Actin using ImageJ. (FIG. 11G) RD cells were treated with peptides S78, S78A, S82A, or S78-3A at the concentration of 25 μM for 2 hours and then infected with EV-A71 at the MOI of 0.1 for 24 hours. Viral titration was calculated. The Statistical analyses were carried out using Student's t-test. *: p<0.05, **: p<0.01, ***: p<0.001. Data are expressed as mean ±SD.
as §1

[2] = EV-A71 MOI 10 for 6 hours, RD cells
[3] = SB203580 0-8 μM for 2 hours, EV-A71 MOI 10 for 6 hours, RD cells

Molecule | inhibition of Hsp27 Ser78 phosphorylation [1, 2] | EV-A71 VP1 protein level at 50 μM (in words) (EV-A71 VP1; 50 μM) | reduction of VP1 level (densitometric assay) (EV-A71 VP1; 50 μM) | EV-A71 VP1 protein level (in words) (EV-A71 VP1) | reduction of phosphorylation level at Ser78 (densitometry) ([1]; 8 μM, EV-A71-infected RD cells) | phosphorylation level of Hsp27 at Ser15 [1, 3] | phosphorylation level of Hsp27 at Ser82 [1, 3] | phosphorylation of Hsp27 at Ser78 [1, 3]
Ac-RKKRRQRRRAYSRALSRQLSS-NH2 [S78] | dramatically inhibited | almost undetectable level | over 99% | dramatically decreased | – | – | – | –
Ac-RKKRRQRRRYSREANQPKPSPKRESGEE-NH2 [NC, reference compound] | – | – | – | no effect | – | – | – | –
C[S+]([O-])c1ccc(-c2nc(-c3ccncc3)c(-c3ccc(F)cc3)[nH]2)cc1 (stereo not drawn) [SB203580, reference compound] | – | – | – | – | over 85% | slightly decreased | slightly decreased | markedly suppressed in a dose-dependent manner
Ac-RKKRRQRRRAYSRALARQLSS-NH2 [S78A] | less inhibition | – | about 60% | much weaker | – | – | – | –
